Here are results for 2 compounds from patent US10995068B2, “Synthetic sphingolipid-like molecules, drugs, methods of their synthesis and methods of treatment” (The Regents of the University of California, priority 2015, dated 2021).

The test system of experiment [1] is FL5.12 cells. The experiment in a line: Vacuolation assay. Further details: key to Vacuolation score: 0-100 score: (3×%cat3+2×%cat2+1×%cat1)/3; cells graded 0-3 for vacuoles. The experiment is classed as cell-based, murine. The settings on record: FL5.12 cells, 3 h in 2.5 μM compound except where otherwise indicated, mean ± SEM, n ≥3. The essentials:
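Cells incubated 3 h with 2.5 μM compound unless noted, then examined by brightfield/DIC microscopy at 100×. At least 15 cells per experiment graded 0–3; weighted % score divided by 3 (maximum 100), averaged over three independent experiments as mean±SEM.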

Experiment [2] has as its system fusion of LC3-positive autophagosomes with LAMP1-positive lysosomes. The experiment in a line: Autophagosome-lysosome fusion in chloroquine-treated cells. It counts as cell-based. The procedure:
It is known in the art that cells adapt to nutrient stress by increasing autophagic flux. However, autophagosome-lysosome fusion reactions depend upon […] release via TRPML1 channels that are activated by PI(3,5)P2. […] Chloroquine (CQ) is molecule that stabilizes the transient autophagosomes. Cells were treated with CG to stabilize autophagolysosomes and subsequently treated with FTY720, SH-BC-893, or YM201636. […] Phosphatidylinositol 5-Phosphate (PI(5)P) is essential for autophagosome biogenesis upon glucose depletion. PI(5)P is produced by dephosphorylating PI(3,5)P2, and thus PI(5)P might also be mis-localized in SH-BC-893-treated cells, and thus also contributing to the disruption of autophagosome formation. […] Thus, SH-BC-893 inhibited both autophagosome formation and degradation. As a control, Vac14 over-expression limited vacuolation (FIGS. 55F, 61F, and 62B) and rescued autophagic flux in SH-BC-893-treated cells (FIGS. 61A, 61B, 61D and 61E).
Light Microscopy: Brightfield and epifluorescence microscopy were conducted using a Nikon TE2000-S fluorescence microscope; confocal microscopy was performed on a Zeiss LSM780 confocal microscope or Nikon Eclipse Ti spinning disk confocal microscope. […] Co-localization was determined using JACoP plugin in ImageJ software. Macropinocytosis was measured after 16 h incubation in serum-free DMEM. p53−/−; LSL-K-RasG12D MEFs before (LSL) or after (KRasG12D) introduction of Cre were serum starved for 16 h and then treated with macropinocytosis inhibitor 5-(N-ethyl-N-isopropyl) amiloride (EIPA, 75 μM) for 1 h or SH-BC-893 for 6 h. Oregon Green dextran (Life Technologies, cat #D7173) (1 mg/mL) and Lysotracker Red (Life Technologies, cat #L-7525) (1:2,000 dilution) were added for 30 min and live cells were evaluated on the spinning disc confocal microscope. […]

Where “and” joins values, the source holds several entries; their conditions need not be identical. Equal entries are not always repeated.

For the compound `CCCCCCCCc1ccc([C@H]2CCN[C@@H]2CO)cc1.Cl` [Compound 5, (2S,3R)-2-(hydroxymethyl)-3-(4-octylphenyl)Pyrrolidinium chloride], the Vacuolation score in experiment [1] (listed as 104) is 81 and 81 ± 3. In addition, the “fusion of LC3-positive autophagosomes with LAMP1-positive lysosomes” value in experiment [2] is given as “reduced fusion”.
Compound `CCCCCCCCc1ccc(CCC(N)(CO)CO)cc1.Cl` [FTY720, 2-Amino-2-[2-(4-octylphenyl)ethyl]propane 1,3-diol hydrochloride, reference compound] came in with a Vacuolation score in experiment [1] of 82 ± 4. For the same compound, the “fusion of LC3-positive autophagosomes with LAMP1-positive lysosomes” value in experiment [2] is reported as “reduced fusion”.
